melting point [°C] | SMILES
268 to 270 | CC(C)(CCc1noc(=O)[nH]1)c1ccc(C(=O)Nc2cn3cc(C(F)(F)F)ccc3n2)cc1
155 to 156 | Cn1c(Cl)c(Cl)c(C(=O)c2cc(C(C)(C)C)c(O)c(C(C)(C)C)c2)c1Cl
149 | O=C(O)Cc1cc(C(=O)c2cc(Cl)ccc2Cl)ccc1O
140 to 141 | CCOc1nn(Cc2ccc(OCc3ccc(-c4ccccc4)nc3)cc2)cc1CCC(=O)O
64 to 65 | CCOC(=O)/C=C/C=C/c1ccc(OC(C)C)cc1
194 to 200 | CCCn1nc2c(N)nc3c(c2c1CCCCO)CCCC3
87 to 89 | O=c1[nH]c(NCCCN(Cc2ccccc2)c2ccccn2)ncc1Cc1ccncc1
215 to 220 | C[C@@H](NC(=O)c1nc(-c2ccc(Cl)cc2)ns1)[C@](O)(Cn1cncn1)c1ccc(F)cc1F
96 to 98 | CC(=O)C1=C(O)CC(C)OC1=O (stereo unspecified)
84.5 | CC(=C1SCCCS1)c1ccc(Oc2ccc(O)cc2)cc1
178 to 180 | CO[C@H]1CC[C@H](C(=O)N2CCC(c3[nH]nc4c3C(=O)c3c(NC(=O)NN5CCOCC5)cccc3-4)CC2)CC1
112 to 113 | COc1cc(C=O)cc(OC)c1Cl
149 to 151 | Clc1nc(-n2cccn2)ncc1Cc1ccccc1
170 to 172 | COC(=O)C1=Cc2cc(-c3ccc(C(C)(C)C)cc3)ccc2S(=O)(=O)CC1
160 to 167 | COc1cccc(CNc2nccc(-c3cc(N4CCN(CCCN5CCCC5)CC4)c4cc(OC)ccc4c3)n2)c1
130 to 132 | O=C(NC(CS)Cc1ccccc1)N1CCN(c2cccc(C(F)(F)F)c2)CC1 (single isomer, unassigned; (+))
260 to 268 | CC1(C)c2cc3[nH]c(-c4ccncc4)nc3cc2C(=O)NC1O (stereo unspecified)
> 300 | N=C(N)c1ccc2nc(-c3ccc(-c4nc5ccc(C(=N)N)cc5[nH]4)o3)[nH]c2c1
181 to 182 | Cc1cc2c(c(C)c1NC(=O)CC(C)(C)C)CC(C)(C)O2
35 to 36 | c1ccc(Oc2nnns2)cc1
225 to 228 | N#Cc1ncn2c1nc(N1CCOCC1)c1ccccc12
96 to 97 | Nc1cc(N2CCOCC2)cc(C(F)(F)F)c1
171 to 173 | c1cncc(-c2cc(C3CCN(CCc4cccc5ccccc45)CC3)n[nH]2)c1
103 to 105 | COC(=O)OC(C(=O)O)c1ccccc1 (stereo unspecified)
180 to 190 | COc1cc2c(c(N3CCN(C)CC3)c1)OC(C(=O)Nc1ccc(N3CCN(C)CC3)cc1)CC2 (stereo unspecified)

melting point [°C] | SMILES
100 | CCOC(=O)CCC(=O)OCC(F)(F)Cn1nc(C)c(-c2ccc3c(c2)NC(=O)CO3)c1-c1ccc(F)cc1
117 | OC(CCl)(Cc1c(Cl)cccc1Cl)c1ccc(Cl)cc1Cl (stereo unspecified)
228 | N#CC1=C(C2CCCCCC2)Nc2n[nH]cc2C1c1cccc2nonc12 (stereo unspecified)
119 to 121 | O=S1(=O)c2sccc2C=C(CO)N1CCN1CCOCC1
298 to 300 | O=C(Nc1cnccn1)c1cn(-c2ccccc2)c2ccccc2c1=O
174 | COc1cc2cc(c1Cl)N(C)C(=O)CC(O)C1(C)OC1C(C)C1CC(O)(NC(=O)O1)C(OC)C=CC=C(C)C2 (stereo unspecified)
224 to 226 | CC(=O)Nc1ccc(C(=S)SCC(=O)O)cc1
278 to 280 | Cc1cc(C#N)cc(C(=O)c2c(C(C)C)c(=O)[nH]c(=O)n2C(C)C)c1
124 to 125 | COC(=O)c1cc2c3cc(OC)ccc3n(C)c2s1
95 to 96 | O=C(OCc1ccccc1)C1CSC2C(N=Cc3ccc([N+](=O)[O-])cc3)C(=O)N12 (stereo unspecified)
45 to 47 | Nc1ccc(SCC2CC2)cc1[N+](=O)[O-]
89 to 92 | CC(O)c1ccc(O)c(Cl)n1 (stereo unspecified)
255 | O=C(c1cccs1)N1CCN(c2c([N+](=O)[O-])c(=O)n(Cc3ccccc3)c3ncccc23)CC1
> 260 | O=C1c2ccccc2C(=O)c2sc(-c3ccc(Br)o3)nc21
160 to 163 | NCc1ccc(-c2csc(N=C(N)N)n2)o1
165 | COCCOC(=O)C1=NNC(C)=C(C(=O)OC(C)C)C1c1cccc([N+](=O)[O-])c1 (stereo unspecified)
97 to 98 | C#CCn1cc(CO)sc1=O
> 300 | O=C1c2ccccc2C(=O)c2cc(Br)c(Br)cc21
202 to 204 | CN1C(O)=C(C(=O)Nc2ccc(Cl)cc2)c2ccsc2S1(=O)=O
326 to 327 | Clc1cc(Nc2nnc(-c3ccc4nonc4c3)s2)ccc1Br
65 to 66 | CC(C)c1nccn1N=Cc1ccccc1
118 to 119 | CCOC(=O)c1cccc2nc(CC)n(Cc3ccc(-c4ccccc4C(=O)C(=O)OC)cc3)c12
224 | CC1(C)CCC(=O)Nc2ccc(Nc3ncc(Cl)c(Nc4ccccc4-c4nccs4)n3)cc21
127 to 128 | ClCc1ccccc1COc1ccc(C=Cc2ccc3ccccc3n2)cc1
226 to 228 | O=C(Nc1ccc2c(c1)C(=O)NC2=O)C(=O)N1CCC(Cc2ccc(F)cc2)CC1

melting point [°C] | SMILES
138 | CC(=O)SCC(Cc1ccccc1)C(=O)NN1CCSCC1 (stereo unspecified)
110 to 127 | OCCN(CCO)Cc1ccc(-c2cc3ncnc(Nc4ccc5[nH]ccc5c4)c3s2)cc1
254 to 255 | Nc1ccc(-c2cc(=O)c3cccnc3o2)cc1
125 to 126 | CCc1cccc2c3c([nH]c12)C(CC)(CCOC)OCC3 (stereo unspecified)
165 to 166 | N#Cc1ccc2sc3c(c2c1)CC(CO)CC3 (stereo unspecified)
252 | CC1(C)OC(C)(C)C(=NO)C1=NO
140 to 141 | Brc1ccc(CN2CCN(c3ccncc3)CC2)cc1
208 to 209 | O=c1c2cc(F)c(Cl)nc2n(-c2ccc(F)cc2)c(=O)n1OCc1ccccc1
191 to 193 | CCc1ccccc1N1CCN(C(=O)Nc2nc3ccccc3nc2OC)CC1
93 to 94 | CCc1cc(O)n2ccnc2n1
167 to 171 | O=Cc1ccc2c(c1)S(=O)(=O)c1ccccc1C=C2
200 to 204 | Cn1c(COc2ccc(CC3SC(=O)NC3=O)cc2)nc2ccc(Oc3ccc(NC(=O)c4ccccc4)cc3)cc21 (stereo unspecified)
320 to 323 | CCCOc1ccc(NC(C)=O)cc1C1=NC(=O)C2=NC=NC2=N1
107 to 110 | O=C1c2cc([N+](=O)[O-])ccc2OC12CC2
239 to 240 | Nc1nc2ccccc2c2c1nc1n2C(CO)COC1 (stereo unspecified)
104 to 106 | Nc1ccc(NCC(F)(F)F)c([N+](=O)[O-])c1
89 to 90 | CN(Cc1ccc(F)cc1)C1CCN(c2ccc([N+](=O)[O-])cc2)CC1
221 to 222 | NNC(=O)c1ccccc1CS(N)(=O)=O
229 to 230 | COc1cc2[nH]c(=O)nc(C)c2c(OC)c1OC
170 to 173 | CCOC(=O)C1CN(S(C)(=O)=O)CCN1CC=CC(=O)Nc1cc2c(Nc3ccc(F)c(Cl)c3)ncnc2cc1OCC1CC1 (stereo unspecified)
136 to 137 | COc1ccc2oc(-c3csc(C)n3)cc2c1
253 to 254 | O=c1[nH]c2cc(Cl)c(Cl)c(Cl)c2o1
190 | O=C1C=C(c2ccc(F)cc2)CN1
203 | CCCCc1nc2ccsc2n1Cc1ccc(-c2ccccc2C(=O)O)cc1
> 250 | CCc1ccc(Nc2nc3cc(NC(=O)c4ccc([N+](=O)[O-])cc4Cl)ccc3o2)cc1

melting point [°C] | SMILES
260 to 261 | Fc1cc(F)c2c(c1)CCC(n1cc[nH]c1=S)C2 (stereo unspecified)
> 260 | O=C(O)c1ccc(-c2ccc(NS(=O)(=O)C(F)(F)F)cc2)[nH]c1=O
224 to 226 | O=C(NC1CCSC2COCC(C(=O)O)N2C1=O)C(S)Cc1ccccc1 (stereo unspecified)
122 to 124 | CCC(=O)CC(=O)c1ccc(C(=O)CC(=O)CC)cc1
144 to 146 | CCN(CC)Cc1ccc(-c2cccc(-c3ccnc4c(C(=O)c5cccs5)cnn34)c2)cc1
223 to 225 | COc1cc(CNc2n[nH]c3ncnc(Nc4cccc(Cl)c4)c23)ccc1O
202 to 206 | COc1cn(-c2ccc(-n3cccn3)cc2F)nc(-c2ccnn2-c2ccccc2F)c1=O
85 to 87 | O=S(=O)(Nc1cccc(CCOCc2sc3ccccc3c2Cl)c1)C(F)(F)F
161 to 162 | COC(=O)c1cccc(-c2nc(COc3ccc(COc4nn(-c5ccccc5)cc4C=O)cc3)c(C)o2)c1
83 to 84 | CCn1c(=O)n(CCC(C)C(C)=O)c(=O)c2c1ncn2CCOC (stereo unspecified)
268 to 269 | CC(CC#N)(C(=O)NCC#N)c1ccc(C(=O)Nc2cn3cc(Cl)ccc3n2)cc1 (stereo unspecified)
81 to 83 | CCCCCCCCCCCCCCCCCCOc1ccc(OCc2ccccc2)c(C(=O)N(CC(=O)O)CC(=O)O)c1
150 to 152 | COc1cc2ncc(O[C@H]3CC[C@@H](OC(C)=O)CC3)nc2cc1OC
122 to 124 | CCNc1ncccc1C(=O)Nc1c(C)ccnc1Cl
114 to 120 | NC(=O)C(O)c1ccsc1 (stereo unspecified)
113 to 155 | COc1cc2c(cc1O)CCN(Cc1cccc(C#N)c1)C2
105 to 107 | N#Cc1cc(Cc2ccc(F)cc2)ccc1N
203 to 205 | O=C(Nc1ccccc1)c1cn(-c2ccccc2)c2ccccc2c1=O
191 to 192 | O=C(CCCO)Nc1cccc(/C=C/c2nc3ccccc3s2)c1
42 to 43.5 | C=C(CS(=O)CCCC)c1ccccc1 (stereo unspecified)
105 to 107 | CC1(CCl)CC(SCc2c(C(F)(F)F)n[nH]c2Cl)=NO1 (stereo unspecified)
122 to 124 | Oc1cc2cc(-c3ccccc3)sc2c(Cl)c1Cl
129 to 132 | O=[N+]([O-])c1cc(Cl)cnc1N1CCN(C/C=C/c2ccc(C(F)(F)F)cc2)CC1

SMILES | melting point [°C]
CN1C(=O)C(NC(=O)Nc2cccc(Cl)c2)N=C(c2ccccc2)c2ccccc21 (stereo unspecified) | 178 to 180
CC(=O)OC1N=C(c2ccccc2F)c2cc(Cl)ccc2-n2c1cnc2C (stereo unspecified) | 201 to 202
N#Cc1nn(-c2c(Cl)cc(C(F)(F)F)cc2Cl)c(NCc2cnccn2)c1S(=O)C(F)(F)F (stereo unspecified) | 169

Source: a melting point compilation (Tetko et al.; mined from patent text by program, amines drawn as free bases though some values may be those of a salt)
